Like-named read-outs stand apart in the source and are kept apart here.
Target: T1, hM5 (Homo sapiens, UniProt P08912)
T1 construct: expressed in transfected cells
T1 sequence (P08912 1-532): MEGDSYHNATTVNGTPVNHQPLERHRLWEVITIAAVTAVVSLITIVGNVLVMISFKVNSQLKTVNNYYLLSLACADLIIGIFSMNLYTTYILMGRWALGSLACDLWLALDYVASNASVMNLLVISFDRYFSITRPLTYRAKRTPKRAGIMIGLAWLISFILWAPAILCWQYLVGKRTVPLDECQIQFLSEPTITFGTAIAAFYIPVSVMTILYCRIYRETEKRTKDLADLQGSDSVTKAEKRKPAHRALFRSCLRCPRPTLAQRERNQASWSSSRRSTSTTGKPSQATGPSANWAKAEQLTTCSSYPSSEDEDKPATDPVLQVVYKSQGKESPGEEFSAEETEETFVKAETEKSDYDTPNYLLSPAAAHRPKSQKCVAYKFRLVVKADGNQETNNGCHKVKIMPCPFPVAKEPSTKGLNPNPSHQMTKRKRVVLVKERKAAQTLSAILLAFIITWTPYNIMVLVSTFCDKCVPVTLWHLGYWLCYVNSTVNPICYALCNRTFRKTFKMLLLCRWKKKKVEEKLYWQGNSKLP
Experiment: Calcium mobilization concentration-response (IC50 vs EC80 acetylcholine), CHO hM5
Type: cell-based
In short: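 IC50 values derive from percent maximal acetylcholine response after an EC80 ACh addition, measured as kinetic calcium fluorescence (static ratio, max−min). Test compounds were added 140 s before agonist. Cells: stable hM5-CHO in HEPES-buffered HBSS with 2.5 mM probenecid, pH 7.4; ≥3 independent triplicate determinations.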

[1] = CELL LINE hM5, calcium mobilization, EC80 acetylcholine addition, read-out: IC50
[2] = CELL LINE hM5, vs EC80 acetylcholine, read-out: IC50

IC50 [1] [µM] | Compound | also measured
6 | Cc1cc2nccn2cc1C1CCN(S(=O)(=O)c2ccc3ncsc3c2)CC1 [Compound 68, 6-((4-(7-methylimidazo[1,2-a]pyridin-6-yl)piperidin-1-yl)sulfonyl)benzo[d]thiazole] | 
0.125 | Cc1c(S(=O)(=O)N2CCC(c3cn4ncnc4cc3F)CC2)cnn1C [Compound 161, 6-(1-((1,5-dimethyl-1H-pyrazol-4-yl)sulfonyl)piperidin-4-yl)-7-fluoro-[1,2,4]triazolo[1,5-a]pyridine] | 
> 10 | Cc1cc2ncnn2cc1C1CCN(S(=O)(=O)c2ccccc2F)CC1 [Compound 97, 6-(1-((2-fluorophenyl)sulfonyl)piperidin-4-yl)-7-methyl-[1,2,4]triazolo[1,5-a]pyridine] | 
> 10 | O=S(=O)(c1ccc2c(c1)CCO2)N1CC=C(c2cc3c(cc2Cl)OCO3)CC1 [Compound 352, 4-(6-chlorobenzo[d][1,3]dioxol-5-yl)-1-((2,3-dihydrobenzofuran-5-yl)sulfonyl)-1,2,3,6-tetrahydropyridine] | 
 | Cc1c(S(=O)(=O)N2CCC(c3cn4ncnc4cc3C(F)F)CC2)cnn1C [Compound 455, 7-(difluoromethyl)-6-(1-((1,5-dimethyl-1H-pyrazol-4-yl)sulfonyl)piperidin-4-yl)-[1,2,4]triazolo[1,5-a]pyridine] | IC50 [2]: 0.063 µM
> 10 | O=S(=O)(c1ccc2ncsc2c1)N1CCC(c2cc(-c3ccco3)n[nH]2)CC1 [Compound 6, 6-((4-(3-(furan-2-yl)-1H-pyrazol-5-yl)piperidin-1-yl)sulfonyl)benzo[d]thiazole] | 
 | Cc1cc(N(C)C)ncc1C1CCN(S(=O)(=O)c2cnn(C)c2Cl)CC1 [Compound 551, 5-(1-((5-chloro-1-methyl-1H-pyrazol-4-yl)sulfonyl)piperidin-4-yl)-N,N,4-trimethylpyridin-2-amine] | IC50 [2]: 0.007 µM
0.017 | Cc1c(C2CCN(S(=O)(=O)c3cnn(C)c3C(F)F)CC2)cn2ncnc2c1F [Compound 307, 6-(1-((5-(Difluoromethyl)-1-methyl-1H-pyrazol-4-yl)sulfonyl)piperidin-4-yl)-8-fluoro-7-methyl-[1,2,4]triazolo[1,5-a]pyridine] | 
 | Cc1ncc(S(=O)(=O)N2CCC(c3ccc4ncnn4c3)CC2)s1 [Compound 480, 5-((4-([1,2,4]triazolo[1,5-a]pyridin-6-yl)piperidin-1-yl)sulfonyl)-2-methylthiazole] | IC50 [2]: > 10 µM
 | Cc1cc2ncnn2cc1C1CCN(S(=O)(=O)c2cnn(C)c2CN)CC1 [Compound 529, (1-methyl-4-((4-(7-methyl-[1,2,4]triazolo[1,5-a]pyridin-6-yl)piperidin-1-yl)sulfonyl)-1H-pyrazol-5-yl)methanamine] | IC50 [2]: 0.371 µM
5.8 | Cc1sc(C(N)=O)nc1C1CCN(S(=O)(=O)c2cnn(C)c2C)CC1 [Compound 213, 4-(1-((1,5-Dimethyl-1H-pyrazol-4-yl)sulfonyl)piperidin-4-yl)-5-methylthiazole-2-carboxamide] | 
 | Cn1ncc(S(=O)(=O)N2CCC(c3c4c(nn3C)CCCC4)CC2)c1Cl [Compound 592, 3-(1-((5-chloro-1-methyl-1H-pyrazol-4-yl)sulfonyl)piperidin-4-yl)-2-methyl-4,5,6,7-tetrahydro-2H-indazole] | IC50 [2]: 0.325 µM
0.306 | Cc1c(S(=O)(=O)N2CCC(c3ccc4c(c3)OCO4)CC2)cnn1C [Compound 356, 4-(benzo[d][1,3]dioxol-5-yl)-1-((1,5-dimethyl-1H-pyrazol-4-yl)sulfonyl)piperidine] | 
> 10 | O=S(=O)(c1ccc2ncccc2c1)N1CCC(c2cc3[nH]ncc3cn2)CC1 [Compound 20, 6-((4-(1H-pyrazolo[4,3-c]pyridin-6-yl)piperidin-1-yl)sulfonyl)quinoline] | 
> 10 | Cn1ncc(S(=O)(=O)N2CCC(c3ccncc3)CC2)c1Cl [Compound 364, 4-(1-((5-chloro-1-methyl-1H-pyrazol-4-yl)sulfonyl)piperidin-4-yl)pyridine] | 
> 10 | O=S(=O)(c1ccc2c(c1)CCO2)N1CC=C(c2cc3ncnn3cc2Cl)CC1 [Compound 140, 6-chloro-7-(1-((2,3-dihydrobenzofuran-5-yl)sulfonyl)-1,2,3,6-tetrahydropyridin-4-yl)-[1,2,4]triazolo[1,5-a]pyridine] | 
9.2 | Cc1cc2c(cc1S(=O)(=O)N1CCC(c3cc(C)c4ncnn4c3)CC1)C(C)CO2 (stereo not drawn) [Compound 86, 6-(1-((3,6-dimethyl-2,3-dihydrobenzofuran-5-yl)sulfonyl)piperidin-4-yl)-8-methyl-[1,2,4]triazolo[1,5-a]pyridine] | 

IC50 [1] [µM] | Compound | also measured
0.253 | Cc1c(S(=O)(=O)N2CC=C(c3cc4ncnn4cc3Cl)CC2)cnn1C [Compound 142, 6-chloro-7-(1-((1,5-dimethyl-1H-pyrazol-4-yl)sulfonyl)-1,2,3,6-tetrahydropyridin-4-yl)-[1,2,4]triazolo[1,5-a]pyridine] | 
> 10 | Cc1cc(C#N)cnc1C1CCN(S(=O)(=O)c2ccc3c(c2)CCO3)CC1 [Compound 218, 6-(1-((2,3-dihydrobenzofuran-5-yl)sulfonyl)piperidin-4-yl)-5-methylnicotinonitrile] | 
 | Cc1cc2ncnn2cc1C1CC2CCC(C1)N2S(=O)(=O)c1cnn2c1CCC2 (stereo not drawn) [Compound 193, 6-(8-((5,6-dihydro-4H-pyrrolo[1,2-b]pyrazol-3-yl)sulfonyl)-8-azabicyclo[3.2.1]octan-3-yl)-7-methyl-[1,2,4]triazolo[1,5-a]pyridine] | IC50: 1.6 µM
> 10 | Cc1ncc(S(=O)(=O)N2CCC(c3nn4ncnc4cc3C)CC2)s1 [Compound 214, 2-methyl-5-((4-(7-methyl-[1,2,4]triazolo[1,5-b]pyridazin-6-yl)piperidin-1-yl)sulfonyl)thiazole] | 
 | Cc1cc2ncnn2cc1C1=C(C#N)CN(S(=O)(=O)c2cnn(C)c2Cl)CC1 [Compound 469, 1-((5-chloro-1-methyl-1H-pyrazol-4-yl)sulfonyl)-4-(7-methyl-[1,2,4]triazolo[1,5-a]pyridin-6-yl)-1,2,5,6-tetrahydropyridine-3-carbonitrile] | IC50 [2]: 1.64 µM
0.208 | Cc1c(C2CCN(S(=O)(=O)c3ccc4c(c3)CCO4)CC2)cn2ncnc2c1F [Compound 267, 6-(1-((2,3-dihydrobenzofuran-5-yl)sulfonyl)piperidin-4-yl)-8-fluoro-7-methyl-[1,2,4]triazolo[1,5-a]pyridine] | 
0.441 | Cc1cc2ncnn2cc1C1CCN(S(=O)(=O)c2cc3c(cc2F)OCC3)CC1 [Compound 47, 6-(1-((6-fluoro-2,3-dihydrobenzofuran-5-yl)sulfonyl)piperidin-4-yl)-7-methyl-[1,2,4]triazolo[1,5-a]pyridine] | 
 | Cc1ncc(S(=O)(=O)N2CCC(c3cn4ncnc4cc3C(F)F)CC2)o1 [Compound 497, 5-((4-(7-(difluoromethyl)-[1,2,4]triazolo[1,5-a]pyridin-6-yl)piperidin-1-yl)sulfonyl)-2-methyloxazole] | IC50 [2]: 0.141 µM
0.026 | O=S(=O)(c1cnn2c1CCC2)N1CCC(c2cn3ncnc3cc2F)CC1 [Compound 232, 6-(1-((5,6-dihydro-4H-pyrrolo[1,2-b]pyrazol-3-yl)sulfonyl)piperidin-4-yl)-7-fluoro-[1,2,4]triazolo[1,5-a]pyridine] | 
0.0073 | O=S(=O)(c1cnn2c1CCCC2)N1CCC(c2cn3ncnc3cc2Cl)CC1 [Compound 283, 7-chloro-6-(1-((4,5,6,7-tetrahydropyrazolo[1,5-a]pyridin-3-yl)sulfonyl)piperidin-4-yl)-[1,2,4]triazolo[1,5-a]pyridine] | 
> 10 | O=S(=O)(c1ccc2ncsc2c1)N1CCC(c2cn3ncnc3cc2F)CC1 [Compound 107, 6-((4-(7-fluoro-[1,2,4]triazolo[1,5-a]pyridin-6-yl)piperidin-1-yl)sulfonyl)benzo[d]thiazole] | 
0.037 | CCc1cc2ncnn2cc1C1CCN(S(=O)(=O)c2c(Cl)nn(C)c2C)CC1 [Compound 337, 6-(1-((3-chloro-1,5-dimethyl-1H-pyrazol-4-yl)sulfonyl)piperidin-4-yl)-7-ethyl-[1,2,4]triazolo[1,5-a]pyridine] | 
1.45 | Cc1c(S(=O)(=O)N2CC=C(c3cc4c(cc3Cl)N(C)CCO4)CC2)cnn1C [Compound 376, 6-chloro-7-(1-((1,5-dimethyl-1H-pyrazol-4-yl)sulfonyl)-1,2,3,6-tetrahydropyridin-4-yl)-4-methyl-3,4-dihydro-2H-benzo[b][1,4]oxazine] | 
1.4 | Cc1cn2ncnc2cc1C1=CCN(S(=O)(=O)c2cnn(C)c2C)CC1 [Compound 212, 7-(1-((1,5-dimethyl-1H-pyrazol-4-yl)sulfonyl)-1,2,3,6-tetrahydropyridin-4-yl)-6-methyl-[1,2,4]triazolo[1,5-a]pyridine] | 
> 10 | Cc1nn(C)cc1S(=O)(=O)N1CCC(c2ccc3ncnn3c2)CC1 [Compound 63, 6-(1-((1,3-dimethyl-1H-pyrazol-4-yl)sulfonyl)piperidin-4-yl)-[1,2,4]triazolo[1,5-a]pyridine] | 
 | Cn1cnnc1S(=O)(=O)N1CCC(c2cn3ncnc3cc2Cl)CC1 [Compound 541, 7-chloro-6-(1-((4-methyl-4H-1,2,4-triazol-3-yl)sulfonyl)piperidin-4-yl)-[1,2,4]triazolo[1,5-a]pyridine] | IC50 [2]: 0.261 µM

Reference: patent US20230183237A1, “COMPETITIVE AND NONCOMPETITIVE INHIBITORS OF THE MUSCARINIC ACETYLCHOLINE RECEPTOR M5” (Vanderbilt University, priority 2020, published 2023)
